Measured values: patent US5216159A (priority 1991, dated 1993)
Structures can show the parent of a compound that is named as a salt.

Test system: benzodiazepine binding site
Test: not given
Conditions: cited from earlier work

In the case of CN1CCc2cc3c(cc2C1C1OC(=O)c2c1ccc1c2OCO1)OCO3 (single isomer, unassigned; (+)) [(+) bicuculline], the “blockade of enhancement of benzodiazepine binding by GABA agonists” value is given as “blocked”.
In the case of CN1CCc2cc3c(cc2C1C1OC(=O)c2c1ccc1c2OCO1)OCO3 (single isomer, unassigned; (-)) [(-) bicuculline], the “blockade of enhancement of benzodiazepine binding by GABA agonists” value is listed as “much less active”.

Target: GABAa receptor
Test: GABAa receptor binding assay ([3H]-RO15-1788 [3H-Flumanzenil] displacement, rat cortical tissue)
Conditions: 0.5 nM 3H-RO15-1788, rat cortical tissue, 30 min at 4° C.
Procedure: The pharmaceutical utility of compounds of this invention are indicated by the following assay for GABAa receptor activity.
Assays are carried out as described in Thomas and Tallman (J. Bio. Chem. 156: 9838-9842, J. Neurosci. 3:433-440, 1983). Rat cortical tissue is dissected and homogenized in 25 volumes (w/v) of 0.05 M Tris HCl buffer (pH 7.4 at 4° C.). The tissue homogenate is centrifuged in the cold (4°) at 20,000×g for 20'. The supernatant is decanted and the pellet is rehomogenized in the same volume of buffer and again centrifuged at 20,000×g. The supernatant is decanted and the pellet is frozen at -20° C. overnight. The pellet is then thawed and rehomogenized in 25 volume (original wt/vol) of buffer and the procedure is carried out twice. The pellet is finally resuspended in 50 volumes (w/vol of 0.05 M Tris HCl buffer (pH 7.4 at […]).
Incubations contain 100 μl of tissue homogenate, 100 μl of radioligand 0.5 nM (^3 H-RO15-1788 [^3 H-Flumanzenil] specific activity 80 Ci/mmol), drug or blocker and buffer to a total volume of 500 μl. Incubations are carried for 30 min at 4° C. then are rapidly filtered through GFB filters to separate free and bound ligand. Filters are washed twice with fresh 0.05 M tris HCl buffer (pH 7.4 at 4° C.) and counted in a liquid scintillation counter. 1.0 μM diazepam is added to some tubes to determine nonspecific binding. Data are collected in triplicate determinations, averaged and % inhibition of total specific binding is calculated. Total Specific Binding=Total-Nonspecific. In some cases, the amounts of unlabeled drugs is varied and total displacement curves of binding are carried out. Data are converted to a form for the calculation of IC50 and Hill Coefficient (nH).

Compared with c1ccc(-c2ncc3[nH]c4c(c3n2)CCCC4)cc1 [Compound 1, 2-Phenyl-6,7,8,9-tetrahydro-5H-indolo[3,2-d]-pyrimidine], c1ccc(-c2ncc3[nH]c4c(c3n2)CCCCC4)cc1 [Compound 3, 2-Phenyl-cyclohept(g)-pyrrolo[3,2-d]-5H-pyrimidine] is 10-fold higher in IC50: 100 nM for the first, 1000 nM for the second. The first is the more potent here.

First: c1ccc(-c2ncc3[nH]c4c(c3n2)CCC4)cc1 [Compound 2, 2-Phenyl-cyclopent(g)-5H-pyrrolo[3,2-d]-pyrimidine]
Second: c1ccc(-c2ncc3[nH]c4c(c3n2)COCC4)cc1 [Compound 26, 2-Phenyl-5,6,7,9-tetrahydro-5H-pyrano[4,3-b]pyrimidino[4,5-d]-pyrrole]
The IC50 of the first is 3.6-fold lower: 110 nM for the first, 400 nM for the second. The first is the more potent here.

Going from c1ccc(COC2CCc3[nH]c4cnc(-c5ccccc5)nc4c3C2)cc1 (centres unmarked) [Compound 5, 2-Phenyl-8-benzyloxy-6,7,8,9-tetrahydro-5H-indolo[3,2-d]-pyrimidine] to c1ccc(CN2CCc3[nH]c4cnc(-c5ccccc5)nc4c3C2)cc1 [Compound 32, 8-Benzyl-2-phenyl-5,6,7,9-tetrahydro-5H-pyrido[4,3-b]-pyrimidino[4,5-d]-pyrrole monohydrochloride], the IC50 falls from 100 nM to 13 nM (7.7-fold). The second is the more potent here.

Compared with COc1ccc(-c2ncc3[nH]c4c(c3n2)CCCC4)cc1 [Compound 7, 2-(4-Methoxyphenyl)-6,7,8,9-tetrahydro-5H-indolo[3,2-d]-pyrimidine], COc1ccc(-c2ncc3[nH]c4c(c3n2)CCC4)cc1 [Compound 9, 2-(4-Methoxyphenyl)-cyclopent(g)-5H-pyrrolo[3,2-d]-pyrimidine] is 2.2-fold lower in IC50: 39 nM for the first, 18 nM for the second. The second is the more potent here.

First: c1csc(-c2ncc3[nH]c4c(c3n2)CCCC4)c1 [Compound 10, 2-(2-Thienyl)-6,7,8,9-tetrahydro-5H-indolo[3,2-d]-pyrimidine]
Second: c1ccc(-c2ncc3[nH]c4c(c3n2)CC2(CC4)OCCO2)cc1 [Compound 12, 2'-Phenyl-5',6',7',9'-tetrahydro-spiro[(1,3)dioxolane-2,8'-indolo[3,2-d]-pyrimidine]]
The IC50 of the first is 2.8-fold lower: 9 nM for the first, 25 nM for the second. The first is the more potent here.

CN1C(=O)CCC12CCc1[nH]c3cnc(-c4ccccc4)nc3c1C2 (centres unmarked) [Compound 11, 1-Methyl-2-phenyl-5,6,7,9-tetrahydro-spiro[indolo[3,2-d]-pyrimidine-2',8-pyrrolidin-5'-one]] and COc1ccc(-c2ncc3[nH]c4c(c3n2)CC2(CCCO2)CC4)cc1 (centres unmarked) [Compound 15, 2-(4-Methoxyphenyl)-4,5,5',6',7',9'-hexahydro-spiro[furan-2,8'(3H)-indolo[3,2-d]-pyrimidine]] are the same in IC50: 50 nM for the first, 50 nM for the second.
